How the values were obtained:
Assay type in all cases: in vivo
[1] = test system: barnyardgrass; assay: Test Example 1: herbicidal effects in preemergence treatment under submerged conditions; conditions: dose 2.52 g/a
Procedure, shortened: (§1)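 Weed seeds and 2.5-leaf rice seedlings shared each flooded cup of alluvial soil. Dosing, expressed as g per are, was by pouring water-diluted emulsifiable concentrate onto the surface on sowing day. Mortality was graded 0 to 5 after three weeks' growth.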

[2] = test system: bulrush; assay: as above; conditions: dose 2.52 g/a
Procedure, shortened: as §1

[3] = test system: ducksalad; assay: as above; conditions: dose 2.52 g/a
Procedure, shortened: as §1

[4] = test system: transplanted rice; assay: Test Example 1: preemergence treatment under submerged conditions, effect on crop; conditions: dose 2.52 g/a
Procedure, shortened: as §1

[5] = test system: barnyardgrass; assay: Test Example 2: herbicidal effects during the vegetation period under submerged conditions; conditions: treatment during the vegetation period under submerged conditions; dose 2.52 g/a
Procedure, shortened: (§2)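 Barnyardgrass, bulrush and ducksalad were co-sown in alluvial soil flooded to 4 cm and grown in a greenhouse at 25 to 30° C. At the 1- or 2-leaf stage, water-diluted emulsifiable concentrates went onto the water surface at set doses (g/a). Herbicidal effect was scored three weeks later on a graded scale.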

[6] = test system: bulrush; assay: as above; conditions: treatment during the vegetation period under submerged conditions; dose 2.52 g/a
Procedure, shortened: as §2

[7] = test system: ducksalad; assay: as above; conditions: treatment during the vegetation period under submerged conditions; dose 2.52 g/a
Procedure, shortened: as §2

[8] = test system: Italian ryegrass; assay: Test Example 3: herbicidal effects in soil treatment; conditions: dose 3.2 g/a
Procedure, shortened: (§3)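 Seeds were sown in sterilized diluvial soil and covered with about 1.5 cm of soil. Compounds, formulated as emulsifiable concentrates and diluted with water, were sprayed evenly over the soil surface at set doses in g/a. Herbicidal effect was scored on a rating scale three weeks later.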

[9] = test system: barnyardgrass; assay: as above; conditions: dose 3.2 g/a
Procedure, shortened: as §3

[10] = test system: common lambsquater; assay: as above; conditions: dose 3.2 g/a
Procedure, shortened: as §3

[11] = test system: common ragweed; assay: as above; conditions: dose 3.2 g/a
Procedure, shortened: as §3

[12] = test system: giant foxtail; assay: as above; conditions: dose 3.2 g/a
Procedure, shortened: as §3

[13] = test system: large crabgrass; assay: as above; conditions: dose 3.2 g/a
Procedure, shortened: as §3

[14] = test system: redroot pigweed; assay: as above; conditions: dose 3.2 g/a
Procedure, shortened: as §3

[15] = test system: velvetleaf; assay: as above; conditions: dose 3.2 g/a
Procedure, shortened: as §3

[16] = test system: water foxtail; assay: as above; conditions: dose 3.2 g/a
Procedure, shortened: as §3

[17] = test system: wild oat; assay: as above; conditions: dose 3.2 g/a
Procedure, shortened: as §3

[18] = test system: Italian ryegrass; assay: Test Example 4: herbicidal effect in foliage treatment; conditions: dose 3.2 g/a
Procedure, shortened: (§4)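 Foliar spray, post-emergence: 14-day-old greenhouse plants (25–30° C, diluvial soil) treated with water-diluted EC at set g/a doses; visual herbicidal score at 3 wk post-application.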

[19] = test system: barnyardgrass; assay: as above; conditions: dose 3.2 g/a
Procedure, shortened: as §4

[20] = test system: beadstraw; assay: as above; conditions: dose 3.2 g/a
Procedure, shortened: as §4

[21] = test system: common lambsquater; assay: as above; conditions: dose 3.2 g/a
Procedure, shortened: as §4

[22] = test system: common ragweed; assay: as above; conditions: dose 3.2 g/a
Procedure, shortened: as §4

[23] = test system: giant foxtail; assay: as above; conditions: dose 3.2 g/a
Procedure, shortened: as §4

[24] = test system: large crabgrass; assay: as above; conditions: dose 3.2 g/a
Procedure, shortened: as §4

[25] = test system: posumbu knotweed; assay: as above; conditions: dose 3.2 g/a
Procedure, shortened: as §4

[26] = test system: velvetleaf; assay: as above; conditions: dose 3.2 g/a
Procedure, shortened: as §4

[27] = test system: water foxtail; assay: as above; conditions: dose 3.2 g/a
Procedure, shortened: as §4

[28] = test system: wild oat; assay: as above; conditions: dose 3.2 g/a
Procedure, shortened: as §4

[29] = test system: common chickweed; assay: Test Example 3: herbicidal effects in soil treatment; conditions: dose 3.2 g/a
Procedure, shortened: as §3

[30] = test system: common chickweed; assay: Test Example 4: herbicidal effect in foliage treatment; conditions: dose 3.2 g/a, three weeks after application
Procedure, shortened: as §4

[31] = test system: redroot pigweed; assay: as above; conditions: dose 3.2 g/a, three weeks after application
Procedure, shortened: as §4

[32] = three weeks after the application

O=C1CCCON1Cc1ccccc1NS(=O)(=O)C(F)(F)F [III-12]
A: barnyardgrass, herbicidal effect (evaluation scale 0-5) [1]: 5 (mortality of 90% or above (nearly complete death)) | B: bulrush, herbicidal effect (evaluation scale 0-5) [2]: 5 (mortality of 90% or above (nearly complete death)) | C: ducksalad, herbicidal effect (evaluation scale 0-5) [3]: 5 (mortality of 90% or above (nearly complete death)) | a: transplanted rice, effect on crop (evaluation scale 0-5) [4]: 2 (mortality of at least 20% and less than 40%) | A: barnyardgrass, herbicidal effect (evaluation scale 0-5) [5]: 5 (mortality of 90% or above (nearly complete death)) | B: bulrush, herbicidal effect (evaluation scale 0-5) [6]: 5 (mortality of 90% or above (nearly complete death)) | C: ducksalad, herbicidal effect (evaluation scale 0-5) [7]: 5 (mortality of 90% or above (nearly complete death)) | herbicidal effect, H: Italian ryegrass [8]: 3 (mortality of at least 40% and less than 70%) | herbicidal effect, A: barnyardgrass [9]: 5 (mortality of 90% or above (nearly complete death)) | herbicidal effect, L: common lambsquater [10]: 0 (mortality of less than 5% (almost ineffective)) | herbicidal effect, J: common ragweed [11]: 5 (mortality of 90% or above (nearly complete death)) | herbicidal effect, E: giant foxtail [12]: 5 (mortality of 90% or above (nearly complete death)) | herbicidal effect, D: large crabgrass [13]: 5 (mortality of 90% or above (nearly complete death)) | herbicidal effect, K: redroot pigweed [14]: 0 (mortality of less than 5% (almost ineffective)) | herbicidal effect, I: velvetleaf [15]: 5 (mortality of 90% or above (nearly complete death)) | herbicidal effect, G: water foxtail [16]: 5 (mortality of 90% or above (nearly complete death)) | herbicidal effect, F: wild oat [17]: 2 (mortality of at least 20% and less than 40%) | H: Italian ryegrass, herbicidal effect [18, 32]: 3 (mortality of at least 40% and less than 70%) | A: barnyardgrass, herbicidal effect [19, 32]: 5 (mortality of 90% or above (nearly complete death)) | O: beadstraw, herbicidal effect [20, 32]: 4 (mortality of at least 70% and less than 90%) | L: common lambsquater, herbicidal effect [21, 32]: 0 (mortality of less than 5% (almost ineffective)) | J: common ragweed, herbicidal effect [22, 32]: 4 (mortality of at least 70% and less than 90%) | E: giant foxtail, herbicidal effect [23, 32]: 3 (mortality of at least 40% and less than 70%) | D: large crabgrass, herbicidal effect [24, 32]: 5 (mortality of 90% or above (nearly complete death)) | M: posumbu knotweed, herbicidal effect [25, 32]: 0 (mortality of less than 5% (almost ineffective)) | I: velvetleaf, herbicidal effect [26, 32]: 5 (mortality of 90% or above (nearly complete death)) | G: water foxtail, herbicidal effect [27, 32]: 5 (mortality of 90% or above (nearly complete death)) | F: wild oat, herbicidal effect [28, 32]: 0 (mortality of less than 5% (almost ineffective))

CC1CN(Cc2ccccc2N(C(=O)OCCCl)S(=O)(=O)C(F)(F)F)C(=O)CO1 (stereo not shown) [Compound I-8]
A: barnyardgrass, herbicidal effect (evaluation scale 0-5) [1]: 5 (mortality of 90% or above (nearly complete death)) | B: bulrush, herbicidal effect (evaluation scale 0-5) [2]: 5 (mortality of 90% or above (nearly complete death)) | C: ducksalad, herbicidal effect (evaluation scale 0-5) [3]: 5 (mortality of 90% or above (nearly complete death)) | A: barnyardgrass, herbicidal effect (evaluation scale 0-5) [5]: 5 (mortality of 90% or above (nearly complete death)) | B: bulrush, herbicidal effect (evaluation scale 0-5) [6]: 5 (mortality of 90% or above (nearly complete death)) | C: ducksalad, herbicidal effect (evaluation scale 0-5) [7]: 5 (mortality of 90% or above (nearly complete death)) | H: Italian ryegrass, herbicidal effect (evaluation scale 0-5) [8]: 5 (mortality of 90% or above (nearly complete death)) | A: barnyardgrass, herbicidal effect (evaluation scale 0-5) [9]: 5 (mortality of 90% or above (nearly complete death)) | N: common chickweed, herbicidal effect (evaluation scale 0-5) [29]: 5 (mortality of 90% or above (nearly complete death)) | L: common lambsquater, herbicidal effect (evaluation scale 0-5) [10]: 3 (mortality of at least 40% and less than 70%) | J: common ragweed, herbicidal effect (evaluation scale 0-5) [11]: 5 (mortality of 90% or above (nearly complete death)) | E: giant foxtail, herbicidal effect (evaluation scale 0-5) [12]: 4 (mortality of at least 70% and less than 90%) | D: large crabgrass, herbicidal effect (evaluation scale 0-5) [13]: 5 (mortality of 90% or above (nearly complete death)) | K: redroot pigweed, herbicidal effect (evaluation scale 0-5) [14]: 5 (mortality of 90% or above (nearly complete death)) | I: velvetleaf, herbicidal effect (evaluation scale 0-5) [15]: 5 (mortality of 90% or above (nearly complete death)) | G: water foxtail, herbicidal effect (evaluation scale 0-5) [16]: 5 (mortality of 90% or above (nearly complete death)) | F: wild oat, herbicidal effect (evaluation scale 0-5) [17]: 1 (mortality of at least 5% and less than 20%) | H: Italian ryegrass, herbicidal effect ([18]; three weeks after application): 4 (mortality of at least 70% and less than 90%) | A: barnyardgrass, herbicidal effect ([19]; three weeks after application): 5 (mortality of 90% or above (nearly complete death)) | O: beadstraw, herbicidal effect ([20]; three weeks after application): 4 (mortality of at least 70% and less than 90%) | N: common chickweed, herbicidal effect [30]: 3 (mortality of at least 40% and less than 70%) | L: common lambsquater, herbicidal effect ([21]; three weeks after application): 2 (mortality of at least 20% and less than 40%) | J: common ragweed, herbicidal effect ([22]; three weeks after application): 5 (mortality of 90% or above (nearly complete death)) | E: giant foxtail, herbicidal effect ([23]; three weeks after application): 4 (mortality of at least 70% and less than 90%) | D: large crabgrass, herbicidal effect ([24]; three weeks after application): 4 (mortality of at least 70% and less than 90%) | M: posumbu knotweed, herbicidal effect ([25]; three weeks after application): 5 (mortality of 90% or above (nearly complete death)) | K: redroot pigweed, herbicidal effect [31]: 4 (mortality of at least 70% and less than 90%) | I: velvetleaf, herbicidal effect ([26]; three weeks after application): 5 (mortality of 90% or above (nearly complete death)) | G: water foxtail, herbicidal effect ([27]; three weeks after application): 5 (mortality of 90% or above (nearly complete death)) | F: wild oat, herbicidal effect ([28]; three weeks after application): 1 (mortality of at least 5% and less than 20%)
